Reference: patent publication US7361730B1, “Surface localized colligin/Hsp47 in carcinoma cells” (University of Maryland, priority 1999, dated 2008)
Blank lines part the entries; values can stand above or below the molecule they belong to.

Columns and labels:
[1] = test system: colligin/Hsp47; test: Cell surface labeling, cross-linking and immunoprecipitation; format: cell-based, human and murine; details: 1 mM amiloride; SCC and LL/2 cells
Protocol: The methods used were previously described for the characterization of TM4SF complexes with integrins (Berditchevski et al., (1996) Molec. Biol. of the Cell 7, 193-207). In essence, cells are labeled with NHS-LC-biotin (Pierce, Rockford, Ill.) according to kit protocol, and lysed in immunoprecipitation buffer [1% Brij 96, 25 mM Hepes, pH 7.4, 150 mM NaCl, 5 mM MgCl2, 2 mM PMSF, 20 μg/ml apotinin, and 10 μg/ml leupeptin]. Immune complexes are collected on protein A beads pre-bound with antibodies, followed by four washes with immunoprecipitation buffer. For more “stringent” conditions, the immunoprecipitation buffer is supplemented with 0.2% SDS. Immune complexes are eluted from protein A beads with Laemmli elution buffer and proteins are separated by SDS-PAGE. Proteins are transferred to nitrocellulose membranes and visualized with HRPO-conjugated ExtrAvidin (Sigma Chemical Co., St. Louis Mo.) using Renaissance Chemiluminescent Reagents (NEN, Cambridge). Reprecipitations are preformed from Brij 96 lysates prepared from surface-biotinylated SCC cells. […]
(§1) For cross-linking, cells are treated with DTSSP, a membrane impermeable cross-linker or DSP. After solubilization in immunoprecipitation buffer supplemented with 0.2% SDS protein complexes are immunoprecipitated as above and analyzed under reducing conditions.

[2] = test system: SCC cells and LL/2 cells; test: Tumor cell invasion assay (modified Boyden chamber, Matrigel); format: cell-based, human and murine; details: SCC and LL/2 cells in Matrigel chambers, 24 hrs
Protocol: An in vitro assay is modified after that described previously by Chu et al. (1993) Proc. Natl. Acad. Sci. 90, 4261-4265, utilizing Matrigel®, a reconstituted basement membrane. In essence, a modified Boyden chamber containing an 8 μm-porosity polyvinylpyrolidone-free polycarbonate filter is precoated with Matrigel® (Collaborative Biomedical Products, Becton Dickinson, Bedford, Mass.). The lower well of the chamber is then filled with serum free medium containing 500 μl of 3T6 cell-conditioned medium as a chemoattractant. The upper well is then seeded with 200 μl of cell suspension at 1.0×10^4 cells/chamber plus additives as indicated. The chambers are then incubated at 37° C. for 24 hrs. […] The resulting cells contained in Matrigel®, as well as the cells in the lower chamber, are counted in a Coulter counter. Data are expressed as the percent invasion through the matrix and membrane relative to the migration through the control membrane. The “Invasion Index” is expressed as the ratio of the percent invasion of a test cell over the percent invasion of a control cell.
Overall treatment and group effects are assessed using an analysis of variance (ANOVA), with post-hoc comparisons based on the Newman-Keuls test (p<0.05). The association of mean HSP47 fluorescence labeling with the invasion index is evaluated using the nonparametric Spearman's rank-order correlation coefficient (rho).

[3] = target: T1, colligin/Hsp47 on the surface of murine Lewis Lung Carcinoma (LL/2) cells (murine, UniProt P19324 18-417); test: cross-linking (DSP) and immunoprecipitation with anti-CD81 mAbs, LL/2 cells
T1 construct: whole, on cells; Endogenous protein of LL/2 cells
T1 sequence (looked up): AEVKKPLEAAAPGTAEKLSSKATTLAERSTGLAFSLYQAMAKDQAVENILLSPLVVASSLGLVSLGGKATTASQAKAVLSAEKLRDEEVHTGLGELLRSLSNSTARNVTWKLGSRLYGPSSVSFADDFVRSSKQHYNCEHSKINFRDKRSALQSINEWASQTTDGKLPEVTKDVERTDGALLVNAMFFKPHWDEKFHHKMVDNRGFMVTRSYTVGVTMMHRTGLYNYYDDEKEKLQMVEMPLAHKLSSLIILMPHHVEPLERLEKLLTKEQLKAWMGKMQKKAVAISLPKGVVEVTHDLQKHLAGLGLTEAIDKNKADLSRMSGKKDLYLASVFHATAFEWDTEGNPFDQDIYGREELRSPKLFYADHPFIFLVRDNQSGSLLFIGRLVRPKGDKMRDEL
Protocol: (§2) Reprecipitations are preformed from Brij 96 lysates prepared from surface-biotinylated SCC cells. After five washes with the immunoprecipitation buffer, the protein complexes are dissociated with 0.5% SDS added to the immunoprecipitation buffer. The eluates are subsequently diluted 1:1 with immunoprecipitation buffer and re-precipitated with the appropriate antibodies directly coupled to Sepharose beads. The samples are then processed as described above.
as §1
(§3) Membrane surface proteins are consistently co-precipitated with anti-colligin/Hsp47 antibodies. In cross-linking studies, SCC and LL/2 cells are first pre-treated with a cleavable cross-linker, DSP, then surface labeled with biotin or [^125]-I, and subsequent immunoprecipitation is carried out under stringent conditions to disrupt the noncovalent association between Hsp and tetraspanin protein. […] A characteristic 47K band is readily detected in all anti-CD9 immunoprecipitates and protein band of 22K, similar in size to CD9/or CD81, is co-precipitated with anti-colligin/Hsp47. […]

[4] = target: T2, colligin/CBP2/Hsp47 on the surface of human carcinoma cells (human, UniProt P50454 19-418); test: cross-linking (DSP) and immunoprecipitation with anti-CD81 mAbs, SCC cells
T2 construct: whole, on cells; Endogenous protein on intact cells or in plasma membrane preparations or Brij 96 lysates of surface-biotinylated cells; The 46K band is called unglycosylated Hsp47; also called colligin/Hsp47; cell surface colligin/Hsp47
T2 sequence (looked up): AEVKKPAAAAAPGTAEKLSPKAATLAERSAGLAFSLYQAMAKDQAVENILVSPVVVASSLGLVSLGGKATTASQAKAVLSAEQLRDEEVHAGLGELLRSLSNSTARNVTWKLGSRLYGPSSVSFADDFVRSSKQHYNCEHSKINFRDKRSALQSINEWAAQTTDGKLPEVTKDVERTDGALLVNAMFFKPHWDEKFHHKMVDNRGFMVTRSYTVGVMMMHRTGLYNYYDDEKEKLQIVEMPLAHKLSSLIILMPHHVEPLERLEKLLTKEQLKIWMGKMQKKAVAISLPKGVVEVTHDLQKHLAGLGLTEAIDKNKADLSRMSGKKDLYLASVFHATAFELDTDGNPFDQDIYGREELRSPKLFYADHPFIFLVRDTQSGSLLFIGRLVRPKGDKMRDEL
Protocol: as §2, §1, §3

Molecule: N=C(N)NC(=O)c1nc(Cl)c(N)nc1N [amiloride]
- amount of colligin/Hsp47 recovered following immunoprecipitation [1]: greatly enhances
- invasion index [2]: dramatically decreases the invasion index

- binding result [3]: no binding
B1: CD81 on murine LL/2 cells (other, UniProt P35762 1-236, looked up)
chain: MGVEGCTKCIKYLLFVFNFVFWLAGGVILGVALWLRHDPQTTSLLYLELGNKPAPNTFYVGIYILIAVGAVMMFVGFLGCYGAIQESQCLLGTFFTCLVILFACEVAAGIWGFVNKDQIAKDVKQFYDQALQQAVMDDDANNAKAVVKTFHETLNCCGSNALTTLTTTILRNSLCPSGGNILTPLLQQDCHQKIDELFSGKLYLIGIAAIVVAVIMIFEMILSMVLCCGIRNSSVY
notes: whole, on cells

- binding result [4]: no binding
B2: CD81 on human SCC cells (other, UniProt P60033 1-236, looked up)
chain: MGVEGCTKCIKYLLFVFNFVFWLAGGVILGVALWLRHDPQTTNLLYLELGDKPAPNTFYVGIYILIAVGAVMMFVGFLGCYGAIQESQCLLGTFFTCLVILFACEVAAGIWGFVNKDQIAKDVKQFYDQALQQAVVDDDANNAKAVVKTFHETLDCCGSSTLTALTTSVLKNNLCPSGSNIISNLFKEDCHQKIDDLFSGKLYLIGIAAIVVAVIMIFEMILSMVLCCGIRNSSVY
notes: whole, on cells
